In the experiment the target is T1, SIRT1 (Homo sapiens, UniProt Q96EB6).
T1 sequence (Q96EB6 1-747): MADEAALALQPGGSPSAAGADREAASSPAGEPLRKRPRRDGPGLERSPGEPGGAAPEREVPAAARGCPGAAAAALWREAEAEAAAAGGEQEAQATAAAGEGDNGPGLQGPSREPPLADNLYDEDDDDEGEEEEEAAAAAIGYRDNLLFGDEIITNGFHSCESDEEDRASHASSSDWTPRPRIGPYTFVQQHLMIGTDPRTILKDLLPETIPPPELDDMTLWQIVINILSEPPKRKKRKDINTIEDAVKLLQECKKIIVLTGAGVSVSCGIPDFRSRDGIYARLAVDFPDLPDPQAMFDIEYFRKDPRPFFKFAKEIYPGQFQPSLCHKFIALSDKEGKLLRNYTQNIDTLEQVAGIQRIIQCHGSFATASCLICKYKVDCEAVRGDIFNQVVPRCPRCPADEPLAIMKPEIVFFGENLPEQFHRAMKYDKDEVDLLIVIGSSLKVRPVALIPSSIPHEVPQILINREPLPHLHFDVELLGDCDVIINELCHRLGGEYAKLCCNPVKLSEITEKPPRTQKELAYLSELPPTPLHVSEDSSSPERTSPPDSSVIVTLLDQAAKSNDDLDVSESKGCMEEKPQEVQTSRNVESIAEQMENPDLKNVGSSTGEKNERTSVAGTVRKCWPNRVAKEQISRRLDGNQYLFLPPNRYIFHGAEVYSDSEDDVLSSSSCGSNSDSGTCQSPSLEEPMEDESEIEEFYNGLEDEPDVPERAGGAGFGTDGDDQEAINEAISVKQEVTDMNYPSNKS
In words: Mass spectrometry based SIRT1 deacetylation (activation) assay. Type of experiment: biochemical. The following applies: 0.5 μM peptide substrate, 120 μM βNAD+, 10 nM SIRT1, 25 min at 25° C.; for Emax: 25 min, read-out: % Fold Act. (percent maximum fold activation).

Take `CCc1nnc(-c2ccccc2NC(=O)c2cc(NCCN(C)C)nc(-c3ccccc3)n2)s1` [Compound 53]: the EC1.5 entry is “B (EC1.5>1 and ≦10 uM)”; the Emax lay within 150 to 300%.

On to `Cc1cccc(NC(=O)c2ccccc2NC(=O)c2cc(NCCN(C)C)nc(-c3ccccc3)n2)c1` [Compound 146, 6-(2-(dimethylamino)ethylamino)-2-phenyl-N-(2-(m-tolylcarbamoyl)phenyl)pyrimidine-4-carboxamide], for which the EC1.5 result was “B (EC1.5>1 and ≦10 uM)”; the Emax was no less than 300%.

On to `CC(C)Cc1nnc(-c2ccccc2NC(=O)c2cc(NCCN(C)C)nc(-c3ccccc3)n2)s1` [Compound 60], for which the EC1.5 result is recorded as “A (EC1.5≦1 uM)” and the Emax is 150 to 300%.

Take `CSCCNC(=O)c1ccccc1NC(=O)c1cc(NCCN(C)C)nc(-c2ccccc2)n1` [Compound 148, 6-(2-(dimethylamino)ethylamino)-N-(2-(2-(methylthio)ethylcarbamoyl)phenyl)-2-phenylpyrimidine-4-carboxamide]: the EC1.5 result is “B (EC1.5>1 and ≦10 uM)”; the Emax was no less than 300%.

As for `CCN(CCN(C)C)c1cc(C(=O)Nc2ccccc2C(=O)NC2CCCN(C(=O)OC(C)(C)C)C2)nc(-c2ccccc2)n1` (stereo not shown) [Compound 172, tert-butyl 3-(2-(6-((2-(dimethylamino)ethyl)(ethyl)amino)-2-phenylpyrimidine-4-carboxamido)benzamido)piperidine-1-carboxylate], the EC1.5 result was “B (EC1.5>1 and ≦10 uM)”; the Emax fell in the range of 150 to 300%.

Take `CCN1CCN(c2cc(C(=O)Nc3ccccc3-c3nnc(N4CCOCC4)s3)nc(-c3ccccc3)n2)CC1=O` [Compound 104]: the EC1.5 result is recorded as “A (EC1.5≦1 uM)” and the Emax fell in the range of 150 to 300%.

As to `O=C(Nc1ccccc1-c1nnc(C(=O)N2CCOCC2)s1)c1cc(NC(CO)CO)nc(-c2ccccc2)n1` [Compound 90], the EC1.5 result is given as “A (EC1.5≦1 uM)” and the Emax was no less than 300%.

Take `CN(C)CCNc1cc(C(=O)Nc2ccccc2C(=O)Nc2cccc(C(N)=O)c2)nc(-c2ccccc2)n1` [Compound 147, N-(2-(3-carbamoylphenylcarbamoyl)phenyl)-6-(2-(dimethylamino)ethylamino)-2-phenylpyrimidine-4-carboxamide]: the EC1.5 entry is “A (EC1.5≦1 uM)” and the Emax was no less than 300%.

Turning to `CCN(CCN(C)C)c1cc(C(=O)Nc2ccccc2C(=O)c2nccs2)nc(-c2ccccc2)n1` [Compound 177], the EC1.5 result was “A (EC1.5≦1 uM)” and the Emax is no less than 300%.

Take `CN(C)CCNc1cc(C(=O)Nc2ccccc2C(=O)Nc2cccc(Cl)c2)nc(-c2ccccc2)n1` [Compound 145, N-(2-(3-chlorophenylcarbamoyl)phenyl)-6-(2-(dimethylamino)ethylamino)-2-phenylpyrimidine-4-carboxamide]: the EC1.5 entry is “A (EC1.5≦1 uM)” and the Emax is no less than 300%.

With `CCN(CCN(C)C)c1cc(C(=O)Nc2ccccc2-c2ncc(-c3ccccc3)o2)nc(-c2ccccc2)c1` [Compound 34], the EC1.5 result is on record as “A (EC1.5≦1 uM)” and the Emax is no less than 300%.

As to `CN(C)CCNc1cc(C(=O)Nc2ccccc2C(=O)Nc2cccnc2)nc(-c2ccccc2)n1` [Compound 155, 6-(2-(dimethylamino)ethylamino)-2-phenyl-N-(2-(pyridin-3-ylcarbamoyl)phenyl)pyrimidine-4-carboxamide], the EC1.5 entry is reported as “A (EC1.5≦1 uM)” and the Emax was no less than 300%.

Take `CCN(CCN(C)C)c1cc(C(=O)Nc2ccccc2-c2nnc(CC(C)C)s2)nc(-c2ccccc2)n1` [Compound 80]: the EC1.5 entry is “B (EC1.5>1 and ≦10 uM)”; the Emax is 150 to 300%.

`CN(C)CCNc1cc(C(=O)Nc2ccccc2-c2nccs2)nc(-c2ccccc2)n1` [Compound 8]: the EC1.5 entry is given as “A (EC1.5≦1 uM)” and the Emax is no less than 300%.

With `CCCCC(=O)c1ccccc1NC(=O)c1cc(NCCN(C)C)nc(-c2ccccc2)n1` [Compound 127], the EC1.5 entry was “B (EC1.5>1 and ≦10 uM)”; the Emax lay within 150 to 300%.

On to `CN(C)CCNc1cc(C(=O)Nc2ccccc2-c2nnc(C3CCCC3)s2)nc(-c2ccccc2)n1` [Compound 49], for which the EC1.5 result is “B (EC1.5>1 and ≦10 uM)”; the Emax lay within 150 to 300%.

Regarding `CN(C)CCNc1cc(C(=O)Nc2ccccc2C(N)=O)nc(-c2ccccc2)n1` [Compound 3], the EC1.5 entry is “B (EC1.5>1 and ≦10 uM)”; the Emax is no less than 300%.

Turning to `C/C(=N\O)c1ccccc1NC(=O)c1cc(NCCN(C)C)nc(-c2ccccc2)n1` [Compound 132], the EC1.5 result is “B (EC1.5>1 and ≦10 uM)”; the Emax lay within 150 to 300%.

Take `O=C(Nc1ccccc1C(=O)c1nccs1)c1cc(N2CCOCC2)nc(-c2ccccc2)n1` [Compound 176]: the EC1.5 entry is listed as “A (EC1.5≦1 uM)” and the Emax is 150 to 300%.

For `CCc1nnc(-c2ccccc2NC(=O)c2cc(N(CC)CCN(C)C)nc(-c3ccccc3)n2)s1` [Compound 55], the EC1.5 result is “A (EC1.5≦1 uM)” and the Emax lay within 150 to 300%.

Regarding `O=C(Nc1ccccc1-c1nnc(N2CCOCC2)s1)c1cc(OC[C@@H](O)CO)nc(-c2ccccc2)n1` [Compound 108], the EC1.5 result is on record as “A (EC1.5≦1 uM)” and the Emax was no less than 300%.

For `CN(C)CCNc1cc(C(=O)Nc2ccccc2-c2ccccc2)nc(-c2ccccc2)n1` [Compound 2], the EC1.5 entry is “C (EC1.5>10 uM)” and the Emax was less than 150%.

On to `CCN(CCN(C)C)c1cc(C(=O)Nc2ccccc2C(=O)NC2CCCNC2)nc(-c2ccccc2)n1` (stereo not shown) [Compound 174, 6-((2-(dimethylamino)ethyl)(ethyl)amino)-2-phenyl-N-(2-(piperidin-3-ylcarbamoyl)phenyl)pyrimidine-4-carboxamide], for which the EC1.5 result was “B (EC1.5>1 and ≦10 uM)”; the Emax is no less than 300%.

For the compound `O=C(Nc1ccccc1-c1nnc(N2CCOCC2)s1)c1cc(N2CCOCC2)nc(-c2ccccc2)n1` [Compound 100], the EC1.5 result is “A (EC1.5≦1 uM)” and the Emax is 150 to 300%.

On to `CN(C)CCNc1cc(C(=O)Nc2ccccc2C(=O)NCCS(C)(=O)=O)nc(-c2ccccc2)n1` [Compound 149, 6-(2-(dimethylamino)ethylamino)-N-(2-(2-(methylsulfonyl)ethylcarbamoyl)phenyl)-2-phenylpyrimidine-4-carboxamide], for which the EC1.5 entry is “B (EC1.5>1 and ≦10 uM)”; the Emax fell in the range of 150 to 300%.

`NC(=O)c1nnc(-c2ccccc2NC(=O)c2cc(N3CCN4CCC[C@H]4C3)nc(-c3ccccc3)n2)s1` [Compound 69]: the EC1.5 result is “A (EC1.5≦1 uM)” and the Emax is 150 to 300%.

Take `O=C(Nc1ccccc1-c1nnc(C(=O)N2CCOCC2)s1)c1cc(OC[C@@H](O)CO)nc(-c2ccccc2)n1` [Compound 91]: the EC1.5 result was “A (EC1.5≦1 uM)” and the Emax lay within 150 to 300%.

For `CCc1nnc(-c2ccccc2NC(=O)c2cc(N(C)CCN(C)C)nc(-c3ccccc3)n2)s1` [Compound 56], the EC1.5 result is “B (EC1.5>1 and ≦10 uM)”; the Emax fell in the range of 150 to 300%.

For `CN(C)CCNc1cc(C(=O)Nc2ccccc2-c2ncc(C(C)(C)C)o2)nc(-c2ccccc2)n1` [Compound 39], the EC1.5 entry was “B (EC1.5>1 and ≦10 uM)”; the Emax is 150 to 300%.

For `CCOC(=O)c1nnc(-c2ccccc2NC(=O)c2cc(N(C)CCN(C)C)nc(-c3ccccc3)n2)s1` [Compound 57], the EC1.5 entry is given as “C (EC1.5>10 uM)” and the Emax was less than 150%.

As for `CN(C)CCNc1cc(C(=O)Nc2ccccc2C(=O)N2CCCC2)nc(-c2ccccc2)n1` [Compound 120, 6-(2-(dimethylamino)ethylamino)-2-phenyl-N-(2-(pyrrolidine-1-carbonyl)phenyl)pyrimidine-4-carboxamide], the EC1.5 result is “C (EC1.5>10 uM)” and the Emax is no less than 300%.

In the case of `COCCNC(=O)c1ccccc1NC(=O)c1cc(NCCN(C)C)nc(-c2ccccc2)n1` [Compound 122, 6-(2-(dimethylamino)ethylamino)-N-(2-(2-methoxyethylcarbamoyl)phenyl)-2-phenylpyrimidine-4-carboxamide], the EC1.5 result is reported as “C (EC1.5>10 uM)” and the Emax is no less than 300%.

For `CCN(CC)CCNc1cc(C(=O)Nc2ccccc2C(C)=O)nc(-c2ccccc2)n1` [Compound 135], the EC1.5 entry was “B (EC1.5>1 and ≦10 uM)”; the Emax is no less than 300%.

As for `CN(C)CCNc1cc(C(=O)Nc2ccccc2-c2ccccn2)nc(-c2ccccc2)n1` [Compound 28], the EC1.5 result is “B (EC1.5>1 and ≦10 uM)”; the Emax is no less than 300%.

Turning to `CCN1CCN(c2cc(C(=O)Nc3ccccc3-c3nnc(C4CCOCC4)s3)nc(-c3ccccc3)n2)CC1=O` [Compound 94, 6-(4-ethyl-3-oxopiperazin-1-yl)-2-phenyl-N-(2-(5-(tetrahydro-2H-pyran-4-yl)-1,3,4-thiadiazol-2-yl)phenyl)pyrimidine-4-carboxamide], the EC1.5 result is listed as “A (EC1.5≦1 uM)” and the Emax fell in the range of 150 to 300%.

These data come from US20110039847A1, “AMIDE DERIVATIVES AS SIRTUIN MODULATORS” (Sirtris Pharmaceuticals, Inc, priority 2007, published 2011).
